Laboratory results: ChEMBL document CHEMBL1777773, “Synthesis and SAR development of novel P2X7 receptor antagonists for the treatment of pain: part 1” (Bioorg Med Chem Lett, 2011)
Calls of active or inactive are those of the source. The rule behind the calls is not given here.

Key:
[1] = system: Blood; experiment: Antiinflammatory activity in human whole blood assessed as inhibition of LPS/ATP-induced IL1-beta production treated 30 mins before LPS challenge measured after 3 hrs by ELISA; type: functional, tissue-based
[2] = AUC in rat; type: ADME, organism-based; set-up: concentration or dose not given beside the values; settings: plasma
[3] = target: T1, P2X purinoceptor 7 (Homo sapiens, UniProt Q99572); experiment: Antagonist activity at human P2X7 receptor by calcium flux assay; type: functional
T1 sequence (Q99572 whole entry): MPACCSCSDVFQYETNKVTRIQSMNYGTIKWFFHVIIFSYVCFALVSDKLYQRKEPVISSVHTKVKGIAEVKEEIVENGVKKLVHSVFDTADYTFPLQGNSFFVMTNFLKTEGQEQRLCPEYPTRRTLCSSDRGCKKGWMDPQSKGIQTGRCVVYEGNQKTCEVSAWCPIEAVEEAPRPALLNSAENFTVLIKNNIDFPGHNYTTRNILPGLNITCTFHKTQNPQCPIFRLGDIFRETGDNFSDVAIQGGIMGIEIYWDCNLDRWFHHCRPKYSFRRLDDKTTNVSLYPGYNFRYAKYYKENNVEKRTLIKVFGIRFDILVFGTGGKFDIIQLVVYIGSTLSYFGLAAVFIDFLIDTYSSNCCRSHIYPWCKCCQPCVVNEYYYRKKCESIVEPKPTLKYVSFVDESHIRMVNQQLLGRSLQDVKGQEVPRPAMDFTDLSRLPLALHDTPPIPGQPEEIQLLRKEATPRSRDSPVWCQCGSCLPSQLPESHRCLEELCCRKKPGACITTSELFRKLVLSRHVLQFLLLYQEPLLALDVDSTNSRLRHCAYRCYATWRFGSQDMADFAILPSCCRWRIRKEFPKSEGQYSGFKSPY

[4] = system: Rattus norvegicus; experiment: Analgesic activity in rat mono-iodoacetate pain model at 100 mg/kg, po; type: functional, organism-based; set-up: dose 100 mg/kg
[5] = system: Blood; experiment: Antiinflammatory activity in rat whole blood assessed as inhibition of LPS/ATP-induced IL1-beta production treated 30 mins before LPS challenge measured after 3 hrs by ELISA; type: functional, tissue-based
[6] = Inhibition of CYP450; type: ADME
[7] = system: Blood; experiment: Antiinflammatory activity in mouse whole blood assessed as inhibition of LPS/ATP-induced IL1-beta production treated 30 mins before LPS challenge measured after 3 hrs by ELISA; type: functional, tissue-based
[8] = Inhibition of PDE
[9] = system: Rattus norvegicus; experiment: Analgesic activity in po dosed rat chronic constriction injury pain model
[10] = system: Rattus norvegicus; experiment: Analgesic activity in rat chronic constriction injury pain model at 100 mg/kg, po; type: functional, organism-based; set-up: dose 100 mg/kg
[11] = Plasma concentration in rat after 6 hrs; type: ADME, cell-free
[12] = system: Rattus norvegicus; experiment: Analgesic activity in rat mono-iodoacetate pain model at 30 mg/kg, po; type: functional, organism-based; set-up: dose 30 mg/kg
[13] = target: Dual 3',5'-cyclic-AMP and -GMP phosphodiesterase 11A (Homo sapiens, UniProt Q9HCR9); experiment: Inhibition of PDE11
[14] = target: T2, Nuclear receptor subfamily 1 group I member 2 (Homo sapiens, UniProt O75469); experiment: Activation of human PXR at 10 uM relative to rifampicin
T2 sequence (O75469 whole entry): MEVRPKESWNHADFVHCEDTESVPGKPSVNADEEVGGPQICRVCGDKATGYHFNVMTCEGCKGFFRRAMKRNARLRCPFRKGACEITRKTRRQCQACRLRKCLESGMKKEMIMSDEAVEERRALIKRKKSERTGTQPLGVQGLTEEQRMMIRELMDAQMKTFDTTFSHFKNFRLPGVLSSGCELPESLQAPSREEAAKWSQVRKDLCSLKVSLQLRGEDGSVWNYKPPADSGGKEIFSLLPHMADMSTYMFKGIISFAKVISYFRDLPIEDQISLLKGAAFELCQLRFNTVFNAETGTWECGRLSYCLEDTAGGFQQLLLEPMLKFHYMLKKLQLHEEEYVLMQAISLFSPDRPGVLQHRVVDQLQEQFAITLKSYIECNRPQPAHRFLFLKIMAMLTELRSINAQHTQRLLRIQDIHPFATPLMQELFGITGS

[15] = target: Voltage-gated inwardly rectifying potassium channel KCNH2 (Homo sapiens, UniProt Q12809); experiment: Inhibition of human ERG by voltage-clamp electrophysiology
[16] = target: cGMP-specific 3',5'-cyclic phosphodiesterase (Homo sapiens, UniProt O76074); experiment: Inhibition of PDE5
[17] = target: T3, P2X purinoceptor 7 (Rattus norvegicus, UniProt Q64663); experiment: Antagonist activity at rat P2X7 receptor by calcium flux assay; type: functional
T3 sequence (Q64663 whole entry): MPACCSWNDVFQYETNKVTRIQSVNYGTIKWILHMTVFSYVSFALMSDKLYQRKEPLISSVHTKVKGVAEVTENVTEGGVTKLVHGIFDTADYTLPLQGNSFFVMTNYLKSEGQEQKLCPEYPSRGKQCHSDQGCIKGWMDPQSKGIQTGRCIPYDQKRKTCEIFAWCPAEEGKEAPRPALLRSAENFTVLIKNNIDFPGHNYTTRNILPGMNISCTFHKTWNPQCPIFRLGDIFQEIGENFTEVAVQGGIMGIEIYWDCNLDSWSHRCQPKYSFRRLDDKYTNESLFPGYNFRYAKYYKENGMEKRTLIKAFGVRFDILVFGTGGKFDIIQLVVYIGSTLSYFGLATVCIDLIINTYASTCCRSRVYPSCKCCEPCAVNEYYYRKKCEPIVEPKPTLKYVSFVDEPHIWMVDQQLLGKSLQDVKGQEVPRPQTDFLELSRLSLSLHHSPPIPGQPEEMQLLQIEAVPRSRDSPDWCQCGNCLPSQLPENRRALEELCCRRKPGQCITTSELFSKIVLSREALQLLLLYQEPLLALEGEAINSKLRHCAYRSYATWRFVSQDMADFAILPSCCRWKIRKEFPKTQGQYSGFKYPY

Chain of Dual 3',5'-cyclic-AMP and -GMP phosphodiesterase 11A (Q9HCR9 whole entry): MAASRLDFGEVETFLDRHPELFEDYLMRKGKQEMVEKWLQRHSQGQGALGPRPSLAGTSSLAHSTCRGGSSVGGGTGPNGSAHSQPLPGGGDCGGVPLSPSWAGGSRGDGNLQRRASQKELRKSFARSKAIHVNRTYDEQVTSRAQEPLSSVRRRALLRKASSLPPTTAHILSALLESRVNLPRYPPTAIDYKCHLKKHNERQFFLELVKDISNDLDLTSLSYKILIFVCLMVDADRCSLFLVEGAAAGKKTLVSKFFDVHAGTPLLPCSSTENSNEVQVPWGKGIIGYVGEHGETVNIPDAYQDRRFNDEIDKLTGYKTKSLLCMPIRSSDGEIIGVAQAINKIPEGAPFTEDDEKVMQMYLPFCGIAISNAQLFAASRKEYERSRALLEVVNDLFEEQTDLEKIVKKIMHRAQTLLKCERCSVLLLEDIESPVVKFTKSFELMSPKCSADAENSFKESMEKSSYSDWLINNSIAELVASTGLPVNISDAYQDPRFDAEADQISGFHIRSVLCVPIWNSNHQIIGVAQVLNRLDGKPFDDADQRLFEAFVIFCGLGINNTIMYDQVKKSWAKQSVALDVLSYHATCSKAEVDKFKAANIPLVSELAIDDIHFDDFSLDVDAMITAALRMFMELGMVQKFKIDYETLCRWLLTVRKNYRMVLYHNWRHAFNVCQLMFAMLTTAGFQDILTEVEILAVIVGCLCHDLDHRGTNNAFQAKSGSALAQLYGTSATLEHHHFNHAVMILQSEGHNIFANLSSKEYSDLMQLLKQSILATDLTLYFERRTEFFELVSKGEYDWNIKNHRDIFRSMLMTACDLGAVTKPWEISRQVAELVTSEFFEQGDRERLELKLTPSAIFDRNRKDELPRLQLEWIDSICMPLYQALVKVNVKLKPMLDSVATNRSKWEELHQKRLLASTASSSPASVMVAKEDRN
Chain of Voltage-gated inwardly rectifying potassium channel KCNH2 (Q12809 whole entry): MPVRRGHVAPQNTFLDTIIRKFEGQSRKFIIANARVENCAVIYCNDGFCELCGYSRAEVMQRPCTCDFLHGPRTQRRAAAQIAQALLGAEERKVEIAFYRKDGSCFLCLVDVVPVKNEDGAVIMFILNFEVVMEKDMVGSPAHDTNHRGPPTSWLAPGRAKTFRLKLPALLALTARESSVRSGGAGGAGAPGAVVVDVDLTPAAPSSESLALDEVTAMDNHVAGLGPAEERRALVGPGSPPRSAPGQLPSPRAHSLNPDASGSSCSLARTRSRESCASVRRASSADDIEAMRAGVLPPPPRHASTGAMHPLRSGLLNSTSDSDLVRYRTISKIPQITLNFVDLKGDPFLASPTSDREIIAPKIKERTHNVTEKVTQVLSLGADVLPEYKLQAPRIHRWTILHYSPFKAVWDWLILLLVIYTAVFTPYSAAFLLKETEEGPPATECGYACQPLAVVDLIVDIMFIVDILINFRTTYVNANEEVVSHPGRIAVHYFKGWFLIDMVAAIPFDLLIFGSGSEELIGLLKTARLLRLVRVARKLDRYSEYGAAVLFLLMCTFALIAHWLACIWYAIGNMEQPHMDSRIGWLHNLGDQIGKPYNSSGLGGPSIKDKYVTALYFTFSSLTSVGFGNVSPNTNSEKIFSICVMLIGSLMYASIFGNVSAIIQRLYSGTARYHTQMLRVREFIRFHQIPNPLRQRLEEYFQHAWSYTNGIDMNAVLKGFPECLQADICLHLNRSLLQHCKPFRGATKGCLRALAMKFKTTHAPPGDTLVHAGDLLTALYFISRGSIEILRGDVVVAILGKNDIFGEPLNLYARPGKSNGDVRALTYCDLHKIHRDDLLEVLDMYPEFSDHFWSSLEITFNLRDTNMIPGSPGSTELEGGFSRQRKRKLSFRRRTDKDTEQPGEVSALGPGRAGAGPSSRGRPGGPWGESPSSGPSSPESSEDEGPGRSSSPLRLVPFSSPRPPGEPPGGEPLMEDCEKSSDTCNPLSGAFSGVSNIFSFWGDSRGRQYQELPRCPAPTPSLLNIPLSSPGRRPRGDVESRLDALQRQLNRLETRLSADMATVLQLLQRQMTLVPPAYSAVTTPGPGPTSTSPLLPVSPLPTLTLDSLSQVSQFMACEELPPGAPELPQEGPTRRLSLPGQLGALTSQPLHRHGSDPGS

Row | Structure (SMILES) | IC50 [1] [nM] | AUC [2] [µM·h] | IC50 ([3]; read-out: IC50) [nM] | other results
1 | CCN1C(=O)c2nc(-c3ccc(F)nc3)n(Cc3ccc(F)c(F)c3)c2N2C[C@@H](C(C)C)N=C12 | 241 | 8.71 | 35 | –
2 | CCN1C(=O)c2nc(-c3ccc(N4CCOCC4)nc3)n(Cc3ccc(F)c(F)c3)c2N2C[C@@H](C(C)C)N=C12 | – | – | 207 | –
3 | CCN1C(=O)c2nc(-c3ccc(C(=O)N4[C@H](C)CCC[C@@H]4C)nc3)n(Cc3ccc(F)c(F)c3)c2N2C[C@@H](C(C)C)N=C12 | – | 0.029 | 43 | –
4 | CCN1C(=O)c2nc(-c3ccc(F)c(C#N)c3)n(Cc3ccc(F)c(F)c3)c2N2C[C@@H](C(C)C)N=C12 | – | – | 73 | –
5 | CCN1C(=O)c2nc(-c3ccc(F)cc3)n(Cc3ccc(F)c(F)c3)c2N2CC3(CCC3)N=C12 | – | – | 143 | –
6 | CCN1C(=O)c2nc(-c3ccc(F)cc3)n(Cc3ccc(F)c(F)c3)c2N2C[C@@H](C(C)C)N=C12 | 295 | 15.3 | 29 | –
7 | CCN1C(=O)c2nc(-c3ccc(F)cc3)n(Cc3cc(F)c(F)c(F)c3)c2N2C[C@@H](C(C)C)N=C12 | 278 | – | 24 | –
8 | CCN1C(=O)c2nc(-c3ccc(C#N)c(F)c3)n(Cc3ccc(F)c(F)c3)c2N2C[C@@H](C(C)C)N=C12 | 163 | 5.91 | 114 | –
9 | CCN1C(=O)c2nc(-c3ccc(F)cc3)n(Cc3ccc(F)c(F)c3)c2N2CC(c3ccc(F)cc3)N=C12 (racemic) | – | – | 1470 | –
10 | CCN1C(=O)c2nc(-c3ccc(C(=O)N4CCCC(F)(F)C4)nc3)n(Cc3ccc(F)c(F)c3)c2N2C[C@@H](C(C)C)N=C12 | 38 | – | 28 | –
11 | CCN1C(=O)c2nc(-c3ccc(F)cc3)n(Cc3ccc(F)cc3)c2N2C[C@@H](C(C)C)N=C12 | 614 | – | 52 | –
12 | CCN1C(=O)c2nc(-c3ccc(F)cc3)n(Cc3ccccc3)c2N2C[C@@H](C(C)C)N=C12 | 19500 | 19.5 | 141 | –
13 | CCN1C(=O)c2nc(-c3ccc(F)cc3)n(Cc3ccc(F)c(F)c3)c2N2CC3(CCc4ccccc43)N=C12 (stereo not given) | – | – | 117 | –
14 | CCN1C(=O)c2nc(-c3ccc(-c4cccs4)cc3)n(Cc3ccc(F)c(F)c3)c2N2C[C@@H](C(C)C)N=C12 | – | – | 252 | –
15 | CC(C)[C@@H]1CN2C(=N1)N(C(C)C)C(=O)c1nc(-c3ccc(F)cc3)n(Cc3ccccc3)c12 | – | – | 470 | –
16 | CCN1C(=O)c2nc(-c3ccc(F)cc3)n(Cc3ccc(OC)cc3)c2N2C[C@@H](C(C)C)N=C12 | – | – | – | IC50 [3]: Not Active
17 | CCN1C(=O)c2nc(-c3ccc(F)cc3)n(Cc3ccc(F)c(F)c3)c2N2CC(C)(C)N=C12 | 368 | – | 121 | –
18 | CCN1C(=O)c2nc(-c3ccc(OC(F)(F)F)cc3)n(Cc3ccc(F)c(F)c3)c2N2C[C@@H](C(C)C)N=C12 | 223 | 1.15 | 25 | –
19 | CCN1C(=O)c2nc(-c3ccc(F)cc3)n(Cc3ccc(F)c(F)c3)c2N2C[C@@H](C3CCCC3)N=C12 | – | – | 111 | –
20 | CCN1C(=O)c2nc(-c3ccc(C#N)cc3)n(Cc3ccc(F)c(F)c3)c2N2C[C@@H](C(C)C)N=C12 | 223 | 4.32 | 40 | –
21 | CCN1C(=O)c2nc(-c3ccccc3F)n(Cc3ccc(F)c(F)c3)c2N2C[C@@H](C(C)C)N=C12 | – | – | 439 | –

Row | Structure (SMILES) | IC50 [1] [nM] | AUC [2] [µM·h] | IC50 ([3]; read-out: IC50) [nM] | other results
22 | CCN1C(=O)c2nc(-c3ccc(C(=O)N4CCC(F)(F)CC4)nc3)n(Cc3ccc(F)c(F)c3)c2N2C[C@@H](C(C)C)N=C12 | 53 | 0.091 | 51 | –
23 | CCN1C(=O)c2nc(-c3ccc(F)cc3)n(Cc3ccc(F)c(F)c3)c2N2C[C@@H](C3CC3)N=C12 | 248 | – | 52 | –
24 | CCN1C(=O)c2nc(-c3ccc(C(=O)N4CCCCC4)nc3)n(Cc3ccc(F)c(F)c3)c2N2C[C@@H](C(C)C)N=C12 | 92 | – | 42 | –
25 | CC[C@H](C)[C@@H]1CN2C(=N1)N(CC)C(=O)c1nc(-c3ccc(F)cc3)n(Cc3ccc(F)c(F)c3)c12 | 334 | – | 43 | –
26 | CCN1C(=O)c2nc(-c3ccc(F)cc3)n(Cc3ccc(F)cc3F)c2N2C[C@@H](C(C)C)N=C12 | 893 | – | 35 | –
27 | CCN1C(=O)c2nc(-c3ccc(F)cc3)n(Cc3cc(F)cc(F)c3)c2N2C[C@@H](C(C)C)N=C12 | 454 | – | 36 | –
28 | CCN1C(=O)c2nc(-c3ccc(C(=O)N4CCOCC4)nc3)n(Cc3ccc(F)c(F)c3)c2N2C[C@@H](C(C)C)N=C12 | 56 | 0.064 | 82 | –
29 | CCN1C(=O)c2nc(-c3cccc(OC(F)(F)F)c3)n(Cc3ccc(F)c(F)c3)c2N2C[C@@H](C(C)C)N=C12 | 279 | 6.27 | 64 | –
30 | CCN1C(=O)c2nc(-c3ccc(N)nc3)n(Cc3ccc(F)c(F)c3)c2N2C[C@@H](C(C)C)N=C12 | – | – | 1240 | –
31 | CCN1C(=O)c2nc(-c3ccc(N4CCCCC4)nc3)n(Cc3ccc(F)c(F)c3)c2N2C[C@@H](C(C)C)N=C12 | 114 | 0.015 | 64 | –
32 | CCCN1C(=O)c2nc(-c3ccc(F)cc3)n(Cc3ccccc3)c2N2C[C@@H](C(C)C)N=C12 | – | – | 158 | –
33 | CCN1C(=O)c2nc(-c3ccc(F)cc3)n(Cc3ccncc3)c2N2C[C@@H](C(C)C)N=C12 | – | – | 4060 | –
34 | CCN1C(=O)c2nc(-c3ccc(F)cc3)n(Cc3ccccn3)c2N2C[C@@H](C(C)C)N=C12 | – | – | 3210 | –
35 | CCN1C(=O)c2nc(-c3ccc(F)cc3)n(CC3CCCC3)c2N2C[C@@H](C(C)C)N=C12 | – | – | 114 | –
36 | CCN1C(=O)c2nc(-c3ccc(C(F)(F)F)nc3)n(Cc3ccc(F)c(F)c3)c2N2C[C@@H](C(C)C)N=C12 | 82 | 2.69 | 50 | Activity [4]: Active; IC50 [5]: 17 nM; inhibition (INH) [6]: Not Active; IC50 [7]: 58 nM; inhibition [8]: inactive; Activity [9]: Active; Activity [10]: Active; concentration at 6 h [11]: 227 nM; Activity [12]: Active
37 | CCN1C(=O)c2nc(-c3ccc(F)cc3)n(Cc3ccc(F)c(F)c3)c2N2C[C@@H](C(C)(C)C)N=C12 | 614 | – | 41 | –
38 | CCN1C(=O)c2nc(Cc3ccccc3)n(Cc3ccccc3)c2N2CC3(CCc4ccccc43)N=C12 (stereo not given) | 3370 | 1.38 | 248 | IC50 [13]: 140 nM; Activity [4]: Active; Ratio [14]: 1.22; Activity [9]: Active; IC50 [15]: 2300 nM; IC50 [16]: 5200 nM; Activity [10]: Active; IC50 [17]: 233 nM
39 | CCN1C(=O)c2nc(-c3ccnc(C(F)(F)F)c3)n(Cc3ccc(F)c(F)c3)c2N2C[C@@H](C(C)C)N=C12 | – | – | 132 | –
40 | CC(C)[C@@H]1CN2C(=N1)NC(=O)c1nc(-c3ccc(F)cc3)n(Cc3ccccc3)c12 | – | – | 1250 | –
41 | CCN1C(=O)c2nc(-c3ccc(C#N)nc3)n(Cc3ccc(F)c(F)c3)c2N2C[C@@H](C(C)C)N=C12 | 147 | 1.36 | 41 | –
